Patent US20170311603A1 (priority 2014, published 2017)

Tests used:
VvPR1 = assay: Induction of plant defense gene VvPR1 in grapevine calli, qRT-PCR (Example 5); type: cell-based, V. vinifera L. cv. Chardonnay; conditions: 10 mM in MPM1 medium, 4 days of culture; overexpressed when induction ratio ≧4
VvEDS1 = assay: Induction of plant defense gene VvEDS1 in grapevine calli, qRT-PCR (Example 5); type: cell-based, V. vinifera L. cv. Chardonnay; conditions: 10 mM in MPM1 medium, 4 days of culture; overexpressed when induction ratio ≧4

Compound	expression of VvPR1 gene (VvPR1)	expression of VvEDS1 gene (VvEDS1)
O=C1[O][Bi]([OH])[O]c2ccccc21 [bismuth subsalicylate]	overexpress	overexpress
O=C(O)c1ccccc1O [salicylic acid]	overexpress	overexpress
